The test system of one data set is liver. The experiment in a line: Prevention of hepatic diseases: microscopic fatty liver grading in rabbits. Type of data set: in vivo, rabbit (New Zealand White). As for the experimental part:
(§1) 30 three-month-old male New Zealand White rabbits (Yeonam Horticulture and Animal Husbandry College, Korea), each weighing about 2.5 to 2.6 kg, were raised under condition of temperature 20±2° C., relative humidity 55±5%, and photoperiod 12L/12D. The rabbits were divided into 5 groups and 5 groups of rabbits were fed with 5 different diets, i.e., RC4 diet (Oriental Yeast Co., Japan) containing 1% cholesterol (Control group); 1% cholesterol plus 1 mg/kg Lovastatin® (Merck, U.S.A.) (Lovastatin group); 1% cholesterol plus 0.1% 4-hydroxycinnamic acid (4-hydroxycinnamic acid group); 1% cholesterol plus 0.1% 3,4-dihydroxycinnamic acid (3,4-dihydroxycinnamic acid group); and 1% cholesterol plus 0.1% 3,4-dihydroxyhydrocinnamic acid (3,4-dihydroxyhydrocinnamic acid group), respectively. RC4 diet comprises 7.6% moisture, 22.8% crude protein, 2.8% crude fat, 8.8% crude ash, 14.4% crude cellulose and 43.6% soluble nitrogen-free substances. Cinnamic acid derivatives were purchased from Sigma Chemical Co. (St. Louis, Mo.).
(§2) The rabbits were fed for 8 weeks while being allowed free access to the diets and water.

The conditions of data set [1]: Farmer et al. 1995; cited from earlier work.
For the next data set, the system named is main artery. As to the kind of experiment: Analysis for fatty streak in the main artery of rabbits. Type of data set: in vivo, rabbit (New Zealand White). The procedure: Cinnamic acid derivatives were purchased from Sigma Chemical Co. (St. Louis, Mo.). The rabbits were fed for 8 weeks while being allowed free access to the diets and water. The chest of each of the rabbits sacrificed in Step 2 was incised. […] The main artery was incised in the middle along the longitudinal axis and pinned to a dish. The moist artery was photographed and, then, the staining of fatty streaks was carried out in accordance with the method of […]., et al. (J. Lab. Clin. Med., 121, 103-110(1993)) as follows. A part of the incised main artery was washed three times with anhydrous propylene glycol for 2 min. and stained for 30 min. with a saturated solution of Oil Red O (ORO, Sigma Co.) dissolved in propylene glycol. Thereafter, the artery was washed twice with 85% propylene glycol for 3 min. to remove remaining staining solution and, then washed with physiological saline. The artery was photographed and the photograph was traced. The area of stained region (fatty streak region) was determined with an image analyzer (LEICA, Q-600, Germany) and its proportion (%) to the total arterial area was calculated.

Data set [2] is classed as in vivo, rabbit (New Zealand White). As to conditions: rabbits, 1% cholesterol diet plus 0.1% derivative or 1 mg/kg Lovastatin, 8 weeks. The procedure: as §1, §2
After eight weeks, the rabbits were anesthetized with an intramuscular injection of ketamine (50 mg/kg) in the femoral region and sacrificed. A blood sample was taken from the heart of each rabbit, allowed to stand for 2 hours and centrifuged at 3,000 rpm for 15 minutes and the supernatant serum was separated and stored in a freezer before use.
The chemical analysis of blood was carried out by employing a blood chemical analyzer (CIBA Corning 550 Express, USA) to determine the changes in GOT, GPT, total cholesterol, HDL-cholesterol and triglyceride levels.

The source of these data is patent US6313171A, “Method for preventing or treating elevated blood lipid level-related diseases by administering cinnamic acid derivatives” (Korea Research Institute of Bioscience & Biotechnology, priority 1998, dated 2001).

Molecules are shown by their SMILES.

In the case of `CC[C@H](C)C(=O)O[C@H]1C[C@@H](C)C=C2C=C[C@H](C)[C@H](CC[C@@H]3C[C@@H](O)CC(=O)O3)[C@H]21` [Lovastatin, reference compound], the “microscopic features of the liver” value in the data set on liver (FIGS. 2A-2E, control: many cells containing excessive fat around the central vein) is given as “many cells containing excessive fat were observed around the central vein”. Moreover, the “fatty liver grade (1+ to 4+)” value in the data set on liver (grades 1+(0-25%), 2+(26-50%), 3+(51-75), 4+(76-100%), rabbits, 8 weeks, Control 3.2 ± 0.3) is given as 3.4 ± 0.5. In addition, in data set [1], the side effects entry is “increase in creatine kinase in the liver and rhabdomyolysis”. Moreover, the “macrophage-lipid complex on the arterial endothelium” value with main artery (FIGS. 1A-1E, control: a thick layer) was “no or very thin layers of macrophage-lipid complex”. In the data set on main artery (proportion of total arterial area, Oil Red O, rabbits, 8 weeks, Control 80 ± 8), this molecule came in with a Fatty streak of 15 ± 3%. The HDL/TC in data set [2] (Control 2.5 ± 0.4) was determined as 4.9 ± 2.6%. Also, the “HDL-C (High density lipoprotein-cholesterol)” value in data set [2] (Control 50 ± 11) was determined as 58 ± 23 mg/dL. For the same molecule, in data set [2] (Control 170 ± 30), the “TG (Triglyceride)” value was determined as 153 ± 95 mg/dL. For the same molecule, the “TC (Total cholesterol)” value in data set [2] (Control 1995 ± 472) came out at 1446 ± 263 mg/dL.
